According to PubChem BioAssay (NCI):
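96-well plates; 48 h exposure; 5 concentrations. Endpoints by linear interpolation between flanking doses. Not reached: highest tested concentration assigned. The concentration for 50% growth inhibition is given as GI50. TGI denotes the concentration required for complete inhibition of growth.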

What was measured:
Test in all cases: DTP human tumour cell line panel, 48 h
RPMI-8226 leukemia = system: RPMI-8226 leukemia
DMS 273 small cell lung = system: DMS 273 small cell lung
SNB-75 CNS = system: SNB-75 CNS
UACC-62 melanoma = system: UACC-62 melanoma
OVCAR-8 ovarian = system: OVCAR-8 ovarian
M14 melanoma = system: M14 melanoma
TK-10 renal = system: TK-10 renal
OVCAR-5 ovarian = system: OVCAR-5 ovarian
KM20L2 colon = system: KM20L2 colon
T-47D breast = system: T-47D breast

Row | SMILES | TGI (RPMI-8226 leukemia) [µM] | TGI (DMS 273 small cell lung) [µM] | TGI (SNB-75 CNS) [µM] | TGI (UACC-62 melanoma) [µM] | TGI (OVCAR-8 ovarian) [µM] | TGI (M14 melanoma) [µM] | TGI (TK-10 renal) [µM] | TGI (OVCAR-5 ovarian) [µM] | TGI (KM20L2 colon) [µM] | TGI (T-47D breast) [µM] | GI50 (OVCAR-5 ovarian) [µM] | GI50 (RPMI-8226 leukemia) [µM] | GI50 (SNB-75 CNS) [µM] | GI50 (UACC-62 melanoma) [µM] | GI50 (OVCAR-8 ovarian) [µM] | GI50 (M14 melanoma) [µM] | GI50 (T-47D breast) [µM] | GI50 (TK-10 renal) [µM]
1 | O=S1(=O)OCCOS(=O)(=O)C1Br | > 100 | > 100 | > 100 | > 100 | > 100 | > 100 | > 100 | – | – | – | – | – | – | – | – | – | – | –
2 | COc1cc2c(c(OC)c1OC)-c1ccc(OC)c(=O)cc1C(NC(=O)c1ccc(N=[N+]=[N-])cc1)CC2 (centres undefined) | 4.41 | – | > 90.8 | 31.1 | 1.02 | 31.2 | > 100 | > 100 | 0.0351 | > 100 | – | – | – | – | – | – | – | –
3 | C[Si](C)(C)C1(Sc2ccccc2)SCCCS1 | > 100 | > 100 | > 100 | > 100 | > 100 | > 100 | > 100 | > 100 | – | – | – | – | – | – | – | – | – | –
4 | COc1cc(OC)cc(-c2cc(=O)c3c(OC)c(OC)c(OC)c(OC)c3o2)c1 | > 100 | – | > 100 | > 100 | > 100 | > 100 | > 100 | > 100 | – | 64.1 | – | – | – | – | – | – | – | –
5 | CC(=O)/C(=C\c1cccc([N+](=O)[O-])c1)C(=O)Nc1ccccc1C | > 100 | – | – | > 100 | – | > 100 | > 100 | > 100 | > 100 | – | – | – | – | – | – | – | – | –
6 | CCN(CC)c1ccc(-c2cc(-c3cc(OC)c(OC)c(OC)c3)nc(N3CCOCC3)c2C#N)cc1 | 44.7 | – | 12 | 2.55 | > 100 | 1.33 | > 100 | > 68.2 | – | > 100 | 1.42 | 0.0387 | 1.02 | 0.379 | 1.91 | 0.292 | 1.29 | 15.3
7 | CC(=O)OC1=CC(n2cc(F)c(=O)[nH]c2=O)OC(C)C1=O (centres undefined) | > 100 | > 100 | 99.5 | > 100 | > 100 | > 100 | > 100 | > 100 | – | > 100 | – | – | – | – | – | – | – | –
8 | COc1ccc(-c2nnc(COc3ccc(C(=O)/C=C/c4ccco4)cc3)o2)cc1 | 5.94 | – | 14.5 | 11.2 | 10.1 | 14.6 | 6.25 | 19.1 | – | 10.8 | 5.85 | 2.13 | 3.04 | 3.14 | 3.04 | 4.03 | 2.91 | 2.81
9 | CCN1c2ccccc2C(C(SC)S(=O)(=O)c2ccc(C)cc2)c2c1[nH]c(=O)n(C)c2=O (centres undefined) | > 100 | > 100 | 69.7 | > 100 | > 100 | – | > 100 | > 100 | – | – | – | – | – | – | – | – | – | –
10 | Cn1cnc([N+](=O)[O-])c1S(=O)(=O)Oc1cccc2ccccc12 | 6.69 | – | 32.3 | 20.8 | 18.7 | 10.2 | 2.98 | 27.8 | – | 4.29 | 7.55 | 2.68 | 9.55 | 7.12 | 4.62 | 3.17 | 1.91 | 1.59
11 | CCOC(=O)CC(=O)ON(C)C(C)=O | > 100 | – | – | > 100 | > 100 | > 100 | > 100 | > 100 | > 100 | – | – | – | – | – | – | – | – | –
12 | O=C(/C=C\c1ccc(Cl)c(Cl)c1)c1ccc(Cl)cc1Cl | 41.4 | 34.8 | 46.8 | 35.6 | 38 | 52.4 | – | – | 28 | – | – | 2.35 | – | – | – | – | – | –
13 | O=S(=O)(CCn1c(Sc2ccccc2)c(Sc2ccccc2)c2ccccc21)c1ccccc1 | > 100 | – | > 100 | > 100 | > 100 | > 100 | > 100 | > 100 | – | > 100 | – | – | – | – | – | – | – | –
14 | CN1CCN(CCCn2c(=O)c3sc4ncccc4c3n3nnc(-c4ccccc4)c23)CC1 | 15.8 | – | 13.3 | 16.1 | 15.3 | 7.38 | 13.6 | 16.9 | – | 15.8 | 8.85 | 6.1 | 6.82 | 8.85 | 7.83 | 2.13 | 7.99 | 6.92
15 | CN(C)c1ccc(/C=C(\NC(=O)c2ccccc2)c2nc3ncncc3[nH]2)cc1 | – | – | – | > 100 | > 100 | > 100 | > 100 | > 100 | > 100 | – | – | – | – | – | – | – | – | –
16 | COc1cc2c3c(n(C)c(=O)c2cc1OC)-c1cc2c(cc1/C3=C\CCN)OCO2 | 0.975 | – | > 59.9 | 4.41 | 5.65 | 4.82 | 6.72 | 3.7 | – | > 100 | 0.255 | 0.061 | 6.05 | 0.185 | 0.169 | 0.22 | 1.08 | 1.17
17 | O=c1c2sccc2n(CC2COc3ccccc3O2)c(=O)n1O (centres undefined) | 24.5 | – | 56 | 46.4 | > 100 | > 100 | > 100 | > 100 | – | > 100 | 40 | 3.9 | 3.81 | 14.6 | 30.5 | 21.2 | 16.8 | 30.9
18 | O=C1NCC2(CCN(CCCC3(c4ccc(F)cc4)OCCO3)CC2)N1c1ccccc1 | > 100 | – | > 100 | > 100 | > 100 | > 100 | > 100 | > 100 | – | > 100 | – | – | – | – | – | – | – | –
19 | COc1cccc(-c2nc(-c3ccc(NC(=O)C(C)C)cc3)[nH]c2-c2ccnc(Br)c2)c1 | 2.85 | – | > 100 | 7.99 | > 100 | > 100 | > 100 | > 100 | – | 11.5 | 4.69 | 0.511 | 0.488 | 2.57 | 3.61 | 3.3 | 2.56 | 4.35
20 | COc1ccc(/C=C(/C#N)n2nnc3cccc(F)c32)cc1 | > 100 | – | 0.638 | 29.9 | > 100 | 3.89 | 47.2 | 4.56 | – | > 100 | 1.82 | 2.18 | 0.206 | 0.516 | 1.97 | 0.467 | 0.503 | 3.18
